Test results reported in US5236955A, “Anti-fungal agent” (Washington University, priority 1992, dated 1993).

Legend:
C. albicans lipids = assay: Incorporation of label into total cellular lipids; assay type: cell-based; conditions: 1 hr, 30° C.
Protocol: (§1) Cells were incubated with the indicated [^3 H]fatty acid (specific activity=30 Ci/mmol, 100 μCi/ml media) for 1 h at 30° C. After the organisms were pelleted and washed, spheroplasts were prepared and total lipids extracted. Tests were done on two separate occasions. The incorporation of label from each of the oxatetradecanoic acid analogs and from palmitate into total cellular lipids is expressed as a percentage of the total amount of label incorporated from [^3 H]myristate.
(§2) Analysis of the incorporation of exogenous fatty acids into cellular phospholipids and neutral lipids--Five ml cultures were labeled with each of the 5 tritiated fatty acids or with [9,10(n)^3 H]palmitate (30 Ci/mmol) at 30° C. for 60 min (S. cerevisiae and C. albicans) or for 75 min (C. neoformans) as described in the preceding paragraph. S. cerevisiae and C. albicans cells were then pelleted by centrifugation at 4000×g for 5 min. and washed first in water followed by a wash with 1M sorbitol. […]
(§3) Dried lipids were resuspended in 500 μl CHCl3 :MeOH(1:1). A 2 μl aliquot was counted in a scintillation counter to determine the extent of incorporation of label into cellular lipids. […]

C. neoformans lipids = assay: Incorporation of label into total cellular lipids; assay type: cell-based; conditions: 1 hr, 30° C.
Protocol: as §1, §2, §3

C. neoformans = assay: Growth of C. neoformans cultures (absorbance at 600 nm); assay type: cell-based, Cryptococcus neoformans; conditions: single 300 μM dose, exponential phase, 30° C., SAB, up to 24 h
Protocol: Panel A, survey of the effects of several oxatetradecanoic acids on the growth of C. neoformans. A culture of C. neoformans was grown at 30° C. in SAB media to midlog phase (A600 ~0.5). A single dose of fatty acid was then added to subcultures (final concentration=300 μM). EtOH(0.1%) was used as a negative control. Amphotericin B (AmB) was added (final concentraton=55 μM) as a positive control. Aliquots were withdrawn from the subcultures 0, 0.5, 2, 4, 7, 21, and 24 h after these additions and then absorbance at 600 nm was measured. All assays were done in duplicate or triplicate. A representative test is shown. Panel B, survey of the effects of oxatetradecanoic acids, dioxatetradecanoic acids and oxatridecanoic acids on the viability of C. neoformans. Fatty acid analog was added to the cultures as in Panel A. Aliquots were withdrawn 0.5, 2, 4, 7 or 8, and 24 h later and plated on SAB-agar at various dilutions to determine the number of viable organisms/ml culture. All assays were done in duplicate. Data from a representative test are expressed as the ratio of viable cells in treated cultures relative to a control culture that received 0.1% EtOH. A positive control culture received a single dose of amphotericin B (55 μM); Panel C, dose-dependent reduction in the viability of C. neoformans after addition of 4-oxatetradecanoic acid (O4) to cultures during log-phase growth at 30° C. in SAB. A single dose of the analog was given at T=0 h in the amount indicated and aliquots of the culture were withdrawn at various times to determine the number of viable cells. All assays were done in triplicate. A representative test is shown.
Saccharomyces cerevisiae strain YM2061 (MATa ura3-52 his3Δ200 ade2-101 lys2-801 met LEU2::pRY181 can1; Flick and Johnston, Mol. Cell. Biol. 10, 4757-4769 (1990), Candida albicans strain B311 (obtained from the American Type Tissue Culture, Rockville, Md.), or Cryptococcus neoformans strain L210425 (a clinical isolate that is part of the permanent culture collection of the Mycology Laboratory, Barnes Hospital, St. Louis, Mo.) were grown overnight at 30 C. The S. cerevisiae strain was incubated in YPD medium (1% bacto-yeast extract, Gibco, Long Island, N.Y.), 2% bacto-peptone (Gibco), 2% dextrose). The C. albicans and C. neoformans strains were grown in Sabouraud's media (SAB; 2% (w/v) dextrose, 1% bacto-peptone). The following morning the cultures were diluted into fresh medium to the desired density at 600 nm (early log phase), and subsequently incubated in a rotary shaker at 30° C. until an A600 =0.5 (mid log phase) was achieved. The culture was then divided into 10 ml aliquots. A single 10 μl aliquot of a stock solution of fatty acid analog (prepared in various concentrations using absolute ethanol) was added to the culture so that the final concentration of the compound was 100-500 μM (T=0). Ten microliters of ethanol alone was added to one 10 ml culture which served as the negative control. […] Cell viability was determined at each of these time points by (i) serially diluting the aliquot in 0.15M NaCl and counting cell number in a hemocytometer and (ii) plating 2-3 of the dilutions in triplicate onto plates of SAB/agar (C. albicans and C. neoformans) or YPD/agar (S. cerevisiae). […] The data were expressed as the ratio of viable cells/ml in the fatty acid analog treated subculture to the number of viable cells/ml in the negative (ethanol) control culture. […]

For `CCCCCCCCCCOCCC(=O)O` [O4, 4-oxatetradecanoic acid], the “label incorporated into C. albicans lipids, of the amount observed with [3H]myristate” value (C. albicans lipids) was 27-28%, the “label incorporated into C. neoformans lipids, of the amount observed with [3H]myristate” value (C. neoformans lipids) was 27-28% and the “effect on growth of C. neoformans, as determined by optical density” value (C. neoformans) was “growth arrest equivalent to that observed with 55 μM amphotericin B”.
